The values below come from US20090239841A1, “Diaryl Ureas as CB1 Antagonists” (priority 2004, published 2009).

The structures appear in SMILES notation. Like-named read-outs stand apart in the source and are kept apart here.

For this experiment, the target named is T1, hCB1 (Homo sapiens, UniProt P21554).
T1 construct: made in house; host or cells: Sf9 insect cells (baculovirus), P2 membranes
The experiment in a line: Agonist-induced GTP binding (GTPγ35S) assay at CB1, Example 8. The experiment is classed as biochemical. Particulars: read-out: IC50. The procedure, abridged:
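Antagonism read as inhibition of 1 nM CP55,940-stimulated GTPγ35S ([…]) binding, compounds at 10^−10 to 10^−5 M. Baculovirus-infected Sf9 membranes bearing hCB1 plus G-protein subunits, 60 min room-temperature incubation with 5 μM GDP. Filtration and scintillation counting; data as percent over basal.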

Setting [1] is: IC50 at CB1, determined as described in Example 8.
Setting [2] is: Table II, IC50 at CB1, GTP binding with 1 nM CP55,940.
The mark [3] stands for this setting: Table I, IC50 at CB1, GTP binding with 1 nM CP55,940.

T1 sequence (P21554 whole entry): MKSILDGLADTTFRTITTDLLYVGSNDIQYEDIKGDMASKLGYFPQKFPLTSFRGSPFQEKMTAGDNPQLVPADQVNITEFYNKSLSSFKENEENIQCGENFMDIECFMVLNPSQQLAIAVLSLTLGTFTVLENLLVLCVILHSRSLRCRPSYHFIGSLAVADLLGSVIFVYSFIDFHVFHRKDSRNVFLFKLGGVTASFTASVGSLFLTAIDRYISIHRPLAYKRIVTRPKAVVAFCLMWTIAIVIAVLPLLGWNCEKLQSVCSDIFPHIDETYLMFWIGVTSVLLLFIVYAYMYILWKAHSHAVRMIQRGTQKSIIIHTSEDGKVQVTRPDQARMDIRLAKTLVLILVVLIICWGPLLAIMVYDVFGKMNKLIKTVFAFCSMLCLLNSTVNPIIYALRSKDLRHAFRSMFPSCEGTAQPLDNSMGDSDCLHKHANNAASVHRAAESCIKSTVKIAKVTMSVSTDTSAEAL

Regarding `CCCc1ccc(NC(=O)Nc2ccccc2)cc1` [Compound 291, N-phenyl-N′-(4-propylphenyl)urea], the IC50 under setting [1] was less than 2000 nM. On the same count and under the same terms, the same measure for `Cc1cc(NC(=O)Nc2ccc(OC(F)F)cc2)ccc1Cl` [Compound 612, 1-(4-chloro-3-methylphenyl)-3-[4-(difluoromethoxy)phenyl]urea]: less than 2000 nM. In the case of `COc1ccc(-c2cccc(NC(=O)Nc3ccc(OC(F)F)cc3)c2)cn1` [Compound 72], the IC50 under setting [2] was less than 2000 nM. With `CC(C)Oc1ccc(NC(=O)Nc2ccccc2)cc1` [Compound 375, 1-(4-isopropoxyphenyl)-3-phenylurea], the IC50 under setting [1] was less than 2000 nM.

For the molecule `CC(C)Oc1cccc(NC(=O)Nc2ccc(Cl)cc2)c1` [Compound 248], under setting [2], the IC50 is less than 2000 nM.

As to `COc1ccc(NC(=O)Nc2ccc(CC#N)cc2)cc1` [Compound 586, 1-[4-(cyanomethyl)phenyl]-3-(4-methoxyphenyl)urea], the IC50 under setting [1] was less than 2000 nM.

Take `CCc1ccc(NC(=O)Nc2ccc(C(C)=O)cc2)cc1` [Compound 22, N-(4-acetylphenyl)-N′-(4-ethylphenyl)urea]: the half-inhibitory concentration (IC50) under setting [3] is less than 2000 nM. As to `CCOc1ccc(NC(=O)Nc2ccc(F)c(F)c2)cc1` [Compound 619, 1-(3,4-difluorophenyl)-3-(4-ethoxyphenyl)urea], under setting [1], the IC50 was less than 2000 nM. As for `COc1cccc(NC(=O)Nc2ccc(C(C)=O)cc2)c1` [Compound 408, 1-(4-acetylphenyl)-3-(3-methoxyphenyl)urea], the 50% inhibitory concentration (IC50) under setting [1] was less than 2000 nM. Same read-out and setting: the same measure for `Cc1ccc(NC(=O)Nc2ccc(F)c(F)c2)cc1Cl` [Compound 777, 1-(3-chloro-4-methylphenyl)-3-(3,4-difluorophenyl)urea]: less than 2000 nM. On to `Cc1ccc2cc(NC(=O)Nc3ccc(OC(F)F)cc3)ccc2n1` [Compound 142, N-[4-(difluoromethoxy)phenyl]-N′-(2-methylquinolin-6-yl)urea], for which the IC50 under setting [2] is less than 2000 nM. Same read-out and setting: the same measure for `Cc1ccccc1NC(=O)Nc1cccc(OC(F)F)c1` [Compound 226]: less than 2000 nM. Regarding `CCOc1cccc(NC(=O)Nc2ccc(F)c(F)c2)c1` [Compound 683, 1-(3,4-difluorophenyl)-3-(3-ethoxyphenyl)urea], the IC50 under setting [1] was less than 2000 nM. On the same count and under the same terms, in the case of `CCOC(=O)c1ccc(NC(=O)Nc2cccc(Cl)c2)cc1` [Compound 499, ethyl 4-({[(3-chlorophenyl)amino]carbonyl}amino)benzoate] it was less than 2000 nM. Take `O=C(Nc1ccc(OC(F)F)cc1)Nc1cccc(-c2ccc3ncccc3c2)c1` [Compound 67, N-[4-(difluoromethoxy)phenyl]-N′-(3-quinolin-6-ylphenyl)urea]: under setting [2], the IC50 is less than 2000 nM. For the molecule `COc1ccc(NC(=O)Nc2ccc(C(=O)OC(C)C)cc2)cc1` [Compound 598, isopropyl 4-({[(4-methoxyphenyl)amino]carbonyl}amino)benzoate], the IC50 under setting [1] is less than 2000 nM.

For `COCc1cccc(NC(=O)Nc2ccc(C(=O)OC)cc2)c1` [Compound 665, methyl 4-[({[3-(methoxymethyl)phenyl]amino}carbonyl)amino]benzoate], under setting [1], the IC50 was less than 2000 nM. For the molecule `N#CCOc1ccc(NC(=O)Nc2ccc(F)c(F)c2)cc1` [Compound 732, 1-[4-(cyanomethoxy)phenyl]-3-(3,4-difluorophenyl)urea], the IC50 under setting [1] was less than 2000 nM. As to `CCOc1ccc(NC(=O)Nc2ccc(OC(F)(F)F)cc2)cc1` [Compound 532, 1-(4-ethoxyphenyl)-3-[4-(trifluoromethoxy)phenyl]urea], the IC50 under setting [1] is less than 2000 nM.

Consider `CC(=O)c1ccc(NC(=O)Nc2ccc(C(=O)OC(C)C)cc2)cc1` [Compound 514, isopropyl 4-({[(4-acetylphenyl)amino]carbonyl}amino)benzoate], for which, under setting [1], the IC50 was less than 2000 nM. The same measure, in the same setting: in the case of `CCOc1ccc(NC(=O)Nc2ccc(Cl)c(C)c2)cc1` [Compound 623, 1-(4-chloro-3-methylphenyl)-3-(4-ethoxyphenyl)urea] it was less than 2000 nM.

As for `CCc1cccc(NC(=O)Nc2ccc(COC)cc2)c1` [Compound 239, N-(3-ethylphenyl)-N′-[4-(methoxymethyl)phenyl]urea], the IC50 under setting [2] is less than 2000 nM.

Turning to `CC(C)Oc1ccc(NC(=O)Nc2ccc(F)cc2)cc1` [Compound 368, 1-(4-fluorophenyl)-3-(4-isopropoxyphenyl)urea], under setting [1], the IC50 was less than 2000 nM. On to `Cc1nccc(-c2cccc(NC(=O)Nc3ccc(OC(F)F)cc3)c2)n1` [Compound 10, N-[4-(difluoromethoxy)phenyl]-N′-[3-(2-methylpyrimidin-4-yl)phenyl]urea], for which the IC50 under setting [3] is less than 2000 nM.

Take `O=C(Nc1ccc(Cl)cc1)Nc1ccc(OC(F)F)cc1` [Compound 257, N-(4-chlorophenyl)-N′-[4-(difluoromethoxy)phenyl]urea]: the IC50 under setting [2] is less than 2000 nM. With `O=C(Nc1ccc(Cn2cncn2)cc1)Nc1cccc(OC(F)F)c1` [Compound 784, N-[3-(difluoromethoxy)phenyl]-N′-[4-(1H-1,2,4-triazol-1-ylmethyl)phenyl]urea], the IC50 under setting [1] is less than 2000 nM.

For `O=C(Nc1ccc(OC(F)F)cc1)Nc1cc(OC(F)F)ncn1` [Compound 137, N-[4-(difluoromethoxy)phenyl]-N′-[6-(difluoromethoxy)pyrimidin-4-yl]urea], under setting [2], the IC50 was less than 2000 nM. As for `O=C(Nc1ccccc1)Nc1cccc(OC(F)F)c1` [Compound 376, 1-[3-(difluoromethoxy)phenyl]-3-phenylurea], under setting [1], the IC50 was less than 2000 nM. For `COc1cccc(NC(=O)Nc2ccc(C(=O)OC(C)C)cc2)c1` [Compound 597, isopropyl 4-({[(3-methoxyphenyl)amino]carbonyl}amino)benzoate], the IC50 under setting [1] was less than 2000 nM. `COC(=O)c1ccc(NC(=O)Nc2ccccc2)cc1` [Compound 481, methyl 4-[(anilinocarbonyl)amino] benzoate]: the IC50 under setting [1] is less than 2000 nM.

On to `CCc1ccc(NC(=O)Nc2cccc(OC(C)C)c2)cc1` [Compound 23, N-(4-ethylphenyl)-N′-(3-isopropoxyphenyl)urea], for which, under setting [3], the IC50 is less than 2000 nM. As to `Cc1ccc(NC(=O)Nc2cccc(OCCO)c2)cc1F` [Compound 762, 1-(3-fluoro-4-methylphenyl)-3-[3-(2-hydroxyethoxy)phenyl]urea], under setting [1], the IC50 is less than 2000 nM. With `CCOc1cccc(NC(=O)Nc2ccc(OC(F)(F)F)cc2)c1` [Compound 531, 1-(3-ethoxyphenyl)-3-[4-(trifluoromethoxy)phenyl]urea], under setting [1], the IC50 was less than 2000 nM. As to `N#CCc1ccc(NC(=O)Nc2ccc(F)c(F)c2)cc1` [Compound 728, 1-[4-(cyanomethyl)phenyl]-3-(3,4-difluorophenyl)urea], the IC50 under setting [1] is less than 2000 nM. Take `COCc1ccc(NC(=O)Nc2ccc(C)cc2)cc1` [Compound 359, 1-[4-(methoxymethyl)phenyl]-3-(4-methylphenyl)urea]: the IC50 under setting [1] is less than 2000 nM. On to `Cc1ccc(NC(=O)Nc2ccc(F)cc2)cc1Cl` [Compound 434, 1-(3-chloro-4-methylphenyl)-3-(4-fluorophenyl)urea], for which, under setting [1], the IC50 was less than 2000 nM. Consider `CCCc1ccc(NC(=O)Nc2cccc(C(C)=O)c2)cc1` [Compound 199, N-(3-acetylphenyl)-N′-(4-propylphenyl)urea], for which the IC50 under setting [2] is less than 2000 nM. Take `CCC(=O)c1ccc(NC(=O)Nc2ccc(C)c(F)c2)cc1` [Compound 734, 1-(3-fluoro-4-methylphenyl)-3-(4-propionylphenyl)urea]: under setting [1], the IC50 is less than 2000 nM.

Take `O=C(Nc1ccc(OC(F)F)cc1)Nc1cccc(-c2cncnc2)c1` [Compound 64, N-[4-(difluoromethoxy)phenyl]-N′-(3-pyrimidin-5-ylphenyl)urea]: the IC50 under setting [2] was less than 2000 nM. Same read-out and setting: in the case of `O=C(Nc1ccc(OC(F)F)cc1)Nc1ccc(OC(F)(F)F)cc1` [Compound 96, N-[4-(difluoromethoxy)phenyl]-N′-[4-(trifluoromethoxy)phenyl]urea] it was less than 2000 nM. Same read-out and setting: the same measure for `CC(=O)c1cccc(NC(=O)Nc2ccc(OC(C)C)cc2)c1` [Compound 281, N-(3-acetylphenyl)-N′-(4-isopropoxyphenyl)urea]: less than 2000 nM.

Regarding `COCc1ccc(NC(=O)Nc2cccc(Cl)c2)cc1` [Compound 241, N-(3-chlorophenyl)-N′-[4-(methoxymethyl)phenyl]urea], the IC50 under setting [2] is less than 2000 nM.

Take `CCc1ccc(NC(=O)Nc2ccc(O)cc2)cc1` [Compound 29, N-(4-ethylphenyl)-N′-(4-hydroxyphenyl)urea]: the IC50 under setting [3] is less than 2000 nM. Take `Cc1ccc(NC(=O)Nc2ccc(Cl)cc2)cc1` [Compound 314, N-(4-chlorophenyl)-N′-(4-methylphenyl)urea]: the IC50 under setting [1] is less than 2000 nM. On to `CC(=O)c1cccc(NC(=O)Nc2cccc(OC(C)C)c2)c1` [Compound 419, 1-(3-acetylphenyl)-3-(3-isopropoxyphenyl)urea], for which the IC50 under setting [1] is less than 2000 nM.

Turning to `COC(=O)c1ccc(NC(=O)Nc2ccc(OC(F)F)cc2)cc1` [Compound 132, methyl 4-[({[4-(difluoromethoxy)phenyl]amino}carbonyl)amino]benzoate], the IC50 under setting [2] was less than 2000 nM. On to `COc1cccc(NC(=O)Nc2ccc(OCC#N)cc2)c1` [Compound 588, 1-[4-(cyanomethoxy)phenyl]-3-(3-methoxyphenyl)urea], for which the IC50 under setting [1] is less than 2000 nM. Same read-out and setting: the same measure for `CCCc1ccc(NC(=O)Nc2ccc(C#N)cc2)cc1` [Compound 349, 1-(4-cyanophenyl)-3-(4-propylphenyl)urea]: less than 2000 nM; for `CCCc1ccc(NC(=O)Nc2cc(C)cc(C)c2)cc1` [Compound 658, 1-(3,5-dimethylphenyl)-3-(4-propylphenyl)urea]: less than 2000 nM.

Turning to `CCOc1ccc(NC(=O)Nc2cccc(C#N)c2)cc1` [Compound 265, N-(3-cyanophenyl)-N′-(4-ethoxyphenyl)urea], the IC50 under setting [2] was less than 2000 nM.

Consider `Cc1cc(-c2cccc(NC(=O)Nc3cccc(OC(F)F)c3)c2)cc(C)n1` [Compound 147], for which, under setting [2], the IC50 is less than 2000 nM.

As usually defined, the IC50 is the concentration at which inhibition is half-maximal.
